Measurements published in ChEMBL document CHEMBL1129964 (J Med Chem, 1997).

Key:
Serine protease 1 = Serine protease 1 (Homo sapiens, UniProt P07477); test: Binding affinity towards trypsin
Prothrombin = Prothrombin (Homo sapiens, UniProt P00734); test: Binding affinity towards thrombin
[1] = biological target: Tissue-type plasminogen activator (Homo sapiens, UniProt P00750); test: Binding affinity against tissue-type plasminogen activator receptor
Plasminogen = Plasminogen (Homo sapiens, UniProt P00747); test: Binding affinity towards Plasmin
Sequence of Plasminogen (P00747 97-580 limits assumed): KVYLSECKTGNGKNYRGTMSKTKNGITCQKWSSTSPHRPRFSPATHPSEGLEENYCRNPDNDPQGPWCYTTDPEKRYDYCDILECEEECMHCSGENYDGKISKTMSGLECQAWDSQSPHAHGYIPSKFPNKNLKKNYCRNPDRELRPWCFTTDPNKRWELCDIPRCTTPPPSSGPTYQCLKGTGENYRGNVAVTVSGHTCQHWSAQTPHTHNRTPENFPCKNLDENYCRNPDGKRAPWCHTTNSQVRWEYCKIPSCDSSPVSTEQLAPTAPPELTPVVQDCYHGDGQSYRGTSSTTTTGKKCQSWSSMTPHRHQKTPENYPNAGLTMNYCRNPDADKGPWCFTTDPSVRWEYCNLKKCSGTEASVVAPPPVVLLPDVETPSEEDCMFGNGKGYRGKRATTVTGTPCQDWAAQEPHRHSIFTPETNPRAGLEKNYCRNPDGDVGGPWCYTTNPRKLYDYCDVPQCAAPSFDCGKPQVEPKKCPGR
Sequence of Plasminogen (P00747 581-810 limits assumed): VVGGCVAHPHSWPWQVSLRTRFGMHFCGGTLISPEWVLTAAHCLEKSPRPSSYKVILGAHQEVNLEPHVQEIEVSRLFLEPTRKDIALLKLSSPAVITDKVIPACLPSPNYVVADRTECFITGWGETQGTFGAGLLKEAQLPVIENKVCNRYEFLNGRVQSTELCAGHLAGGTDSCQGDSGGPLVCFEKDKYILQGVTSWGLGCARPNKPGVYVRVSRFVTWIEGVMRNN

Sequence of Tissue-type plasminogen activator (P00750 whole entry): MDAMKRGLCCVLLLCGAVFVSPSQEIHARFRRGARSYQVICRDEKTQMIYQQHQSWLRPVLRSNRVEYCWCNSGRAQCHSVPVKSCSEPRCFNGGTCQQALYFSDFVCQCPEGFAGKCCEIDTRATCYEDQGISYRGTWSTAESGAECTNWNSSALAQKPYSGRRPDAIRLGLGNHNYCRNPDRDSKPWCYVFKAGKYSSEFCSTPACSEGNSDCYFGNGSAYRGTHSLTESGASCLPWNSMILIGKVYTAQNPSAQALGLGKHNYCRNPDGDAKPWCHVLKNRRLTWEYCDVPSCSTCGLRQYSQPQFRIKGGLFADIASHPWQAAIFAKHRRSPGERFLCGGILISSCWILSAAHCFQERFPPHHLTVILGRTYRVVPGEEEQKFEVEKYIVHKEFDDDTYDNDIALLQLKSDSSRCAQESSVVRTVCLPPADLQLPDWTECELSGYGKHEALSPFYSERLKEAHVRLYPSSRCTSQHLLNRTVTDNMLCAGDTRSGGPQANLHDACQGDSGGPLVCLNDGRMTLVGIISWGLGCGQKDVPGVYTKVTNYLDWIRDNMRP
Sequence of Serine protease 1 (P07477 whole entry): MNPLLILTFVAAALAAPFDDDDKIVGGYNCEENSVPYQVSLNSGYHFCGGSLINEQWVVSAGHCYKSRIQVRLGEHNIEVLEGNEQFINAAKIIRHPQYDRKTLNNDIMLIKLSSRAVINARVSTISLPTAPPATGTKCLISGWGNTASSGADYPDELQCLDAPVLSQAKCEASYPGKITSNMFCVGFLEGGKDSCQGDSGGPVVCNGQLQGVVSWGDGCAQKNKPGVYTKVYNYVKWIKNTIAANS

Structure (SMILES)	Ki (Serine protease 1) [µM]	Ki (Prothrombin) [nM]	Ki [1] [µM]	Ki (Plasminogen) [µM]
NC1CCC(CNC(=O)[C@@H]2CCCN2C(=O)C(NS(=O)(=O)Cc2ccccc2)C(c2ccccc2)c2ccccc2)CC1 (stereo partly drawn)	0.004	0.0025	6700	0.49
CNC(=O)C(=O)[C@@H](NC(=O)[C@@H]1CCCN1C(=O)[C@@H](Cc1ccccc1)NC)[C@H]1CC[C@H](N)CC1	–	0.09	–	–
NC1CCC(CNC(=O)[C@@H]2CCCN2C(=O)[C@@H](Cc2ccccc2)NS(=O)(=O)Cc2ccccc2)CC1 (stereo partly drawn)	–	0.4	–	–
NC1CCC(CNC(=O)[C@@H]2CCCN2C(=O)[C@H](N)C(c2ccccc2)c2ccccc2)CC1 (stereo partly drawn)	–	0.1	–	–
CN[C@H](Cc1ccccc1)C(=O)N1CCC[C@H]1C(=O)NC[C@H]1CC[C@H](N)CC1	–	5	–	–
